Our source for the EC50 and IC50 values is patent US7473688B2, “Indolobenzazepine HCV NS5B inhibitors” (Bristol-Myers Squibb Company, priority 2005, dated 2009).

Molecules are shown by their SMILES.

One test relates to HCV replicon. As to the kind of experiment: HCV replicon FRET assay. In kind it is cell-based. Conditions: Hepatitis C virus, Table 1a; FRET assay; read-out: EC50*. A digest of the protocol: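 HCV replicon cells, with or without Renilla luciferase reporter, incubated with titrated compounds at 37 °C; Alamar blue read for cytotoxicity. NS3 protease activity read from lysates with 20 μM EDANS/DABCYL FRET peptide (340/490 nm, kinetic), or by Dual-Glo luciferase. Background from highest protease-inhibitor wells; EC50 = 50% signal reduction.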
For orientation: Replicon systems follow genome replication, usually without infectious particles.

A further test has as its target T1, HCV NS5B (Hepatitis C virus genotype 1b, UniProt Q9WMX2).
T1 construct: The protein was expressed with an 18 amino acid C-terminal truncation to enhance the solubility; made in house; host or cells: E. coli BL21 (DE3), pET21a
Put plainly: HCV NS5B RdRp enzyme assay (preincubation protocol). Conditions: Table 1a, read-out: IC50*. In kind it is biochemical. A digest of the protocol: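 C-terminally truncated (Δ18) genotype 1b NS5B from E. coli, 14 nM, added to compound, then polyA template (0.2 nM), 3H-UTP (0.29 μM) and oligo-dT12 primer precaptured on streptavidin SPA beads. 4 h at 30 °C, pH 7.5, 2% DMSO; SPA readout; IC50 from seven concentrations by logistic fit.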

As a reminder, the EC50 is the concentration giving half of the maximal effect. As a reminder, the IC50 is the concentration that gives 50% inhibition.

T1 sequence (Q9WMX2 2420-2992): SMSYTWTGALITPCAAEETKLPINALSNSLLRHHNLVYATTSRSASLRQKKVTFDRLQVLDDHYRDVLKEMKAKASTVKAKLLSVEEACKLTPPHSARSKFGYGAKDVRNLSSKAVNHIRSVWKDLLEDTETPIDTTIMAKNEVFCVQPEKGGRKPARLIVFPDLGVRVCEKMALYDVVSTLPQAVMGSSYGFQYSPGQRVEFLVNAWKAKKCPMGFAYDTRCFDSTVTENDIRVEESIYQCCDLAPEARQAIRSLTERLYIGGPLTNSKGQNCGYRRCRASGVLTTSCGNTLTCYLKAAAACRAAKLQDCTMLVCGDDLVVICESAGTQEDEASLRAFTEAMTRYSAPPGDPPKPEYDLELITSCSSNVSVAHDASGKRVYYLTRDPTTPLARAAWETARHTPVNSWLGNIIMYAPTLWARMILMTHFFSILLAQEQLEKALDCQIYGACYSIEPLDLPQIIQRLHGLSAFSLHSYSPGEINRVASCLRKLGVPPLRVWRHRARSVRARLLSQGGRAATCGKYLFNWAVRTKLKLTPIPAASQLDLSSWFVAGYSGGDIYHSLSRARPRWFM

On to `COc1ccc2c(c1)C=C(C(=O)N1C[C@@H](C)N(C(C)=O)[C@@H](C)C1)Cn1c-2c(C2CCCCC2)c2ccc(C(=O)NS(=O)(=O)N(C)C)cc21`, for which, in the test with HCV replicon, the concentration for a half-maximal effect (EC50) is 30 to 1000 nM. In addition, the concentration for half-maximal inhibition (IC50) on HCV NS5B lay within 10 to 1000 nM.
With `COc1ccc(-c2[nH]c3cc(C(=O)NS(=O)(=O)N(C)C)ccc3c2C2CCCCC2)c(C(=O)N(C)CC(=O)N(C)C)c1`, the half-maximal effective concentration (EC50) with HCV replicon lay within 30 to 1000 nM. Besides, the IC50 at HCV NS5B is 10 to 1000 nM.
For the molecule `CC(=O)NN(C)C(=O)C1Cc2ccccc2-c2c(C3CCCCC3)c3ccc(C(=O)NS(=O)(=O)N(C)C)cc3n2C1` (stereo not drawn), in the test with HCV replicon, the half-maximal effective concentration (EC50) was 30 to 1000 nM. Further, the half-maximal inhibitory concentration (IC50) on HCV NS5B lay in the range of 10 to 1000 nM.
Turning to `COc1ccc2c(c1)C=C(C(=O)N(C)C[C@@H]1CCCO1)Cn1c-2c(C2CCCCC2)c2ccc(C(=O)NS(=O)(=O)N(C)C)cc21`, the 50% effective concentration (EC50) in the test on HCV replicon was 30 to 1000 nM. The half-inhibitory concentration (IC50) on HCV NS5B lay in the range of 10 to 1000 nM.
As for `COc1ccc2c(c1)C=C(C(=O)N(C)C[C@@H]1CCCO1)Cn1c-2c(C2CCCCC2)c2ccc(C(=O)O)cc21`, in the test with HCV replicon, the half-maximal effective concentration (EC50) was 1000 to 10000 nM. Besides, the IC50 on HCV NS5B lay within 10 to 1000 nM.
For the molecule `CCOC(=O)[C@H]1C[C@@H](O)CN1C(=O)C1=Cc2cc(OC)ccc2-c2c(C3CCCCC3)c3ccc(C(=O)NS(=O)(=O)N(C)C)cc3n2C1`, the EC50 with HCV replicon was in the range of 30 to 1000 nM. Further, the IC50 on HCV NS5B was < 20 nM.
In the case of `COc1ccc2c(c1)C=C(C(=O)N1CCN(C(=O)C3CC3)CC1)Cn1c-2c(C2CCCCC2)c2ccc(C(=O)NS(=O)(=O)N(C)C)cc21`, the EC50 in the test on HCV replicon lay in the range of 30 to 1000 nM. In addition, at HCV NS5B, the IC50 was 10 to 1000 nM.
As for `COc1ccc2c(c1)CC(C(=O)N(C)C1CCOCC1)Cn1c-2c(C2CCCCC2)c2ccc(C(=O)NS(=O)(=O)N(C)C)cc21` (stereo not drawn), in the test with HCV replicon, the EC50 was in the range of 30 to 1000 nM. Besides, at HCV NS5B, the half-maximal inhibitory concentration (IC50) lay in the range of 10 to 1000 nM.
On to `COc1ccc2c(c1)CC(C(=O)N(C)C1CCOCC1)Cn1c-2c(C2CCCCC2)c2ccc(C(=O)O)cc21` (stereo not drawn), for which the EC50 with HCV replicon was 30 to 1000 nM. In addition, the IC50 at HCV NS5B is < 20 nM.
For `COc1ccc2c(c1)CC(NC(=O)N1CCOC(CNC(C)=O)C1)Cn1c-2c(C2CCCCC2)c2ccc(C(=O)NS(=O)(=O)N(C)C)cc21` (stereo not drawn), the concentration for a half-maximal effect (EC50) in the test on HCV replicon was in the range of 30 to 1000 nM. Moreover, the IC50 at HCV NS5B is < 20 nM.
As to `COc1ccc2c(c1)C=C(C(=O)N1CCOC(CO)C1)Cn1c-2c(C2CCCCC2)c2ccc(C(=O)NS(=O)(=O)N(C)C)cc21` (stereo not drawn), the EC50 in the test on HCV replicon lay within 30 to 1000 nM. Moreover, the half-maximal inhibitory concentration (IC50) at HCV NS5B lay within 10 to 1000 nM.
With `COc1ccc2c(c1)C=C(C(=O)N1CC(C)CC(O)C1(C)C)Cn1c-2c(C2CCCCC2)c2ccc(C(=O)NS(=O)(=O)N(C)C)cc21` (stereo not drawn), the 50% effective concentration (EC50) with HCV replicon lay within 30 to 1000 nM. Also, on HCV NS5B, the IC50 is < 20 nM.
In the same order, the values of `COc1ccc2c(c1)CC(C(=O)NCc1cc(C)nn1C)Cn1c-2c(C2CCCCC2)c2ccc(C(=O)NS(=O)(=O)N(C)C)cc21` (stereo not drawn) are 30 to 1000 nM and 10 to 1000 nM.
In the case of `COc1ccc2c(c1)CC(C(=O)NCc1cn(C)cn1)Cn1c-2c(C2CCCCC2)c2ccc(C(=O)NS(=O)(=O)N(C)C)cc21` (stereo not drawn), in the test with HCV replicon, the EC50 fell in the range of 30 to 1000 nM. Besides, the half-maximal inhibitory concentration (IC50) on HCV NS5B was in the range of 10 to 1000 nM.
In the case of `COc1ccc2c(c1)CC(C(=O)N(C)CC(=O)N1CCOCC1)Cn1c-2c(C2CCCCC2)c2ccc(C(=O)NS(=O)(=O)N(C)C)cc21` (stereo not drawn), in the test on HCV replicon, the half-maximal effective concentration (EC50) lay in the range of 30 to 1000 nM. Moreover, at HCV NS5B, the IC50 was < 20 nM.
On to `COC(=O)CCC(=O)CNC(=O)C1=Cc2cc(OC)ccc2-c2c(C3CCCCC3)c3ccc(C(=O)OC)cc3n2C1`, for which, in the test on HCV replicon, the half-maximal effective concentration (EC50) lay in the range of 30 to 1000 nM. Besides, at HCV NS5B, the IC50 fell in the range of 10 to 1000 nM.
Turning to `COc1ccc2c(c1)CC(NC(=O)N1C[C@@H](C)O[C@@H](C)C1)Cn1c-2c(C2CCCCC2)c2ccc(C(=O)NS(=O)(=O)N(C)C)cc21` (stereo partly drawn), the half-maximal effective concentration (EC50) with HCV replicon was in the range of 30 to 1000 nM. For the same molecule, the IC50 on HCV NS5B was 10 to 1000 nM.
As for `COC(=O)c1ccc2c(C3CCCCC3)c3n(c2c1)CC(C(=O)NC1CCOCC1)=Cc1cc(OC)ccc1-3`, in the test on HCV replicon, the concentration giving a half-maximal response (EC50) is 30 to 1000 nM. Moreover, the IC50 at HCV NS5B is 10 to 1000 nM.
In the same order, the values of `COc1ccc2c(c1)C=C(C(=O)N(C)CCN(C)C(C)=O)Cn1c-2c(C2CCCCC2)c2ccc(C(=O)NS(=O)(=O)N(C)C)cc21` are 30 to 1000 nM and 10 to 1000 nM.
On to `COc1ccc2c(c1)C=C(C(=O)N1CC(OC)C1)Cn1c-2c(C2CCCCC2)c2ccc(C(=O)NS(=O)(=O)N(C)C)cc21`, for which, in the test on HCV replicon, the EC50 lay in the range of 30 to 1000 nM. Also, on HCV NS5B, the half-maximal inhibitory concentration (IC50) is < 20 nM.
Take `COc1ccc2c(c1)C=C(C(=O)N(C)CC(=O)N1CCC1)Cn1c-2c(C2CCCCC2)c2ccc(C(=O)NS(=O)(=O)N(C)C)cc21`: the EC50 in the test with HCV replicon was 30 to 1000 nM. At HCV NS5B, the half-inhibitory concentration (IC50) was 10 to 1000 nM.
On the same counts, the results for `CCN(C)C(=O)CN(C)C(=O)C1=Cc2cc(OC)ccc2-c2c(C3CCCCC3)c3ccc(C(=O)NS(=O)(=O)N(C)C)cc3n2C1` are 30 to 1000 nM and 10 to 1000 nM.
For the molecule `COc1ccc2c(c1)C=C(C(=O)N(C)CC(=O)N1CC(OC)C1)Cn1c-2c(C2CCCCC2)c2ccc(C(=O)NS(=O)(=O)N(C)C)cc21`, in the test with HCV replicon, the EC50 was 30 to 1000 nM. Moreover, the half-inhibitory concentration (IC50) on HCV NS5B fell in the range of 10 to 1000 nM.
As to `COc1ccc2c(c1)CC(NC(=O)N1C[C@@H](C)N(C(C)=O)[C@@H](C)C1)Cn1c-2c(C2CCCCC2)c2ccc(C(=O)NS(=O)(=O)N(C)C)cc21` (stereo partly drawn), the concentration for a half-maximal effect (EC50) in the test on HCV replicon is 30 to 1000 nM. The IC50 on HCV NS5B was in the range of 10 to 1000 nM.
